The results in this text go back to patent publication US5849557A, “Oxidized phospholipid degrading enzyme and gene thereof” (Suntory Limited, priority 1993, dated 1998).

What is called inhibition is the change of the read-out against control, counted positive when it falls. Low values mean a weak effect, high ones a strong effect.

Residue numbers refer to the chain shown, from its start.

Test [1] has as its target T1, oxidized phospholipid degrading enzyme (purified enzyme) (Bos taurus, UniProt Q29460).
T1 construct: from tissue; host or cells: bovine brain gray matter, soluble cytoplasmic fraction
T1 sequence (Q29460 2-232): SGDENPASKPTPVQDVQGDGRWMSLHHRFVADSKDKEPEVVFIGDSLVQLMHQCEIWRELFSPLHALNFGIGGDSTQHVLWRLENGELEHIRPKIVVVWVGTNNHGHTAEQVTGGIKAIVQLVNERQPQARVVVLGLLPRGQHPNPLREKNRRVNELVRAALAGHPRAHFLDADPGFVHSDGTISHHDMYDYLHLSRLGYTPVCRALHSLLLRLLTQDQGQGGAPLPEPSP
T1 sequence (P68401 2-229 partner limits assumed): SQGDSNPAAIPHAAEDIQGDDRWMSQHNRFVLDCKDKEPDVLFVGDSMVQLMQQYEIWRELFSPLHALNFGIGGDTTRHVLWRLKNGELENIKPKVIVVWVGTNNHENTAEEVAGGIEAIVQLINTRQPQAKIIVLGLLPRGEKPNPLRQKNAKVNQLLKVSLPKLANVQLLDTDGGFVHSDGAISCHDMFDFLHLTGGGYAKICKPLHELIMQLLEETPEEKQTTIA
T1 sequence (P43033 2-410 A26E/E154Q partner limits assumed): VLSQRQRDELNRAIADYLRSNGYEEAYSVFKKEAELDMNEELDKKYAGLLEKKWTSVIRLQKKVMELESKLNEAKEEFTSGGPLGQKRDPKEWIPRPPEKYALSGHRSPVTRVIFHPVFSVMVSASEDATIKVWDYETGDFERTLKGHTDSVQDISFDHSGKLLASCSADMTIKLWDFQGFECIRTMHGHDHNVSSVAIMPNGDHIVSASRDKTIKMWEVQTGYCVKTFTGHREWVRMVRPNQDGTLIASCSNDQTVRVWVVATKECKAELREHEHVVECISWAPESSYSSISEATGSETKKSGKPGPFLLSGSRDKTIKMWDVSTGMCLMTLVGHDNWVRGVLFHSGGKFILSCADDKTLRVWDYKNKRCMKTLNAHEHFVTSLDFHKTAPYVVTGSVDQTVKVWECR
The experiment in a line: biochemical. Also on record: species or system bovine.

For test [2], the system named is oxidized phospholipid degrading enzyme. The test is described as follows: Influence of calcium ions on the enzyme activity. Particulars: 4 mM calcium chloride. It is filed as biochemical, bovine. The procedure: Measurement of the oxidized phospholipid degrading enzyme by using PAF was conducted in a similar manner to Reference Example 2. Namely, Tris-HCl buffer (final concentration: 50 mM, pH 7.4) which contained as a substrate 20 nmol (6,000 dpm) of the labeled PAF obtained in step (a) was added with 5 mM EDTA or 4 mM CaCl2 as needed, to which the sample (enzyme source) to be measured was added to give a total volume of 250 μl.
(§1) They were mixed in a test tube over ice and then incubated at 37° C. for 30 minutes. Thereafter, 2.5 ml of a chloroform-methanol (4:1) mixture were added to terminate the reaction. Subsequent to addition of 0.25 ml of water, the resulting mixture was vigorously mixed for 5 minutes by a vortex stirrer and then centrifuged for 5 minutes at 3,000 rpm to separate it into two layers. From the upper layer, 600 μl were collected, in which 3 ml of "Clearsol I" (product of NACALAI TESQUE INC.) were mixed. The radioactivity was measured by a liquid scintillation counter. From the intensity of the radioactivity, the amount of acetic acid formed as a result of 2-hydrolysis was calculated to determine the enzyme activity.
The enzyme activity was measured by the measuring method of Reference Example 3 except that 4 mM CaCl2 was added instead of 5 mM of EDTA.

The target in test [3] is T1, oxidized phospholipid degrading enzyme (purified enzyme). The experiment in a line: Substrate specificity of the purified enzyme. The test is classed as biochemical, bovine. The procedure:
as §1, with “560 μl” for “2.5 ml”, “(1:1)” for “(4:1)”, “After” for “Subsequent to addition of 0.25 ml of water,”, “stirrer, the mixture was” for “stirrer and then”, “300” for “600”, “the dicarboxylic” for “acetic”
Namely, Tris-HCl buffer (final concentration: 50 mM, pH 7.4) which contained as a substrate 20 nmol (6,000 dpm) of the labeled PAF obtained in step (a) was added with 5 mM EDTA or 4 mM CaCl2 as needed, to which the sample (enzyme source) to be measured was added to give a total volume of 250 μl.
as §1

Test [4] deals with T2, 30 kDa subunit of the oxidized phospholipid degrading enzyme (bovine).
T2 chain: T1 sequence (P68401 2-229 partner limits assumed)
The experiment in a line: heparin Sepharose or sulfated Cellulofine column treatment of the native enzyme. The procedure:
Against buffer A, 15 ml of the roughly purified fraction obtained in step (e) of Example 1 were dialyzed. The solution so dialyzed was then applied to a column (1×5 cm) of "heparin Sepharose" (product of Pharmacia AB) which had been equilibrated with buffer A, whereby about 80% of the enzyme activity passed through the column without adsorption. When the column was washed with buffer A subsequent to the passage of the dialyzed solution, the activity was gradually eluted with tailing.
After the column was washed with about 30 ml of buffer A, the enzyme was eluted with a 30 ml linear gradient of NaCl (0M to 1.5M) in buffer A. The enzyme activity was eluted around about 0.3M NaCl concentration. […] Further, the fractions eluted around about 0.6M NaCl concentration gave only one spot at 45 kDa.

The target of test [5] is T3, 30 kDa-29 kDa complex without the 45 kDa subunit (bovine).
T3 chain 1: T1 sequence (Q29460 2-232) with N145T, P146Q
T3 chain 2: T1 sequence (P68401 2-229 partner limits assumed)
The experiment in a line: co-purification of the native enzyme; gel filtration and SDS-PAGE. (In general: SEC sorts molecules by how far they enter the pores of the column.)

The mark [6] stands for this setting: in the presence of 4 mM CaCl2, method of Dole et al.

Turning to `O=C(CBr)c1ccc(Br)cc1` [BPB, p-bromophenacyl bromide], in test [1], the “Inhibition of enzyme reactions (in words)” value is reported as “inhibited”; the “Inhibition of the purified enzyme (in words, summary of Table 3)” value is “inhibited”; the inhibition at 100 µM came out at 20%; the inhibition at 1000 µM turned out to be 97%.
In the case of `[Ca+2].[Cl-].[Cl-]` [CaCl2, calcium chloride], the “Enhancement of enzyme activity (in words)” value in test [2] is “slightly enhanced”.
In the case of `NC(=O)CI` [IAM, iodoacetamide], in test [1], the “Inhibition of enzyme reactions (in words)” value was “not inhibited”; the “Inhibition of the purified enzyme (in words, summary of Table 3)” value is reported as “not inhibited at all”; at 100 µM the inhibition was 0%; 1000 µM produced 0% inhibition.
Regarding `CCCCCCCCCCCCCCCC(=O)OC[C@@H](O)COP(=O)([O-])OCC[N+](C)(C)C` [Lyso PC, 1-palmitoyl-sn-glycero-3-phosphocholine], the “Degrading activity / hydrolysis by the enzyme (in words)” value (“Degrading activity / hydrolysis” below) in test [3] is “absolutely no degrading activity”. The Specific activity result in test [3] (setting [6]) is “Not degraded”.
With `CCCCCCCCCCCCCCCCOC[C@H](COP(=O)([O-])OCC[N+](C)(C)C)OC(C)=O` [PAF, 1-hexadecyl-2-acetyl-sn-glycero-3-phospho-choline], the “Degrading activity / hydrolysis” value in test [3] is recorded as “shows degrading activity”. Also, the Specific activity in test [3] (method of Reference Examples 2 and 3) was found to be 1.45 nmol/min/mg.
Consider phosphatidylethanolamine [PE], for which, in test [3], the “Degrading activity / hydrolysis” value was “does not show any degrading activity”. Also, the Specific activity result in test [3] (setting [6]) is on record as “Not degraded”.

B1: 29 kDa subunit of the oxidized phospholipid degrading enzyme (enzyme)
chain: T1 sequence (Q29460 2-232) with N145T, P146Q
With B1, the binding result in test [4] was “binds”.

B2: 45 kDa subunit of the oxidized phospholipid degrading enzyme (other)
chain: T1 sequence (P43033 2-410 A26E/E154Q partner limits assumed)
For B2, the binding result in test [5] is listed as “binds”.
